The text below walks through data of US7982053B2, “Peptide deformylase inhibitors” (GlaxoSmithKline LLC, priority 2005, dated 2011).

The subject of the test is Mycobacterium tuberculosis H37Rv. The experiment in a line: Mycobacterium tuberculosis Susceptibility Assay (Resazurin). The class given is cell-based. Conditions: 7H9+ADC medium, 37° C., read-out: MIC (minimal inhibitory concentration). A general note: The colour change of resazurin is a common sign of viable cells or microbes.

Molecules are shown by their SMILES.

Regarding `Cc1cc(C(=O)NC(=O)[C@@H]2CCCN2C(=O)[C@H](CC2CCCC2)CN(O)C=O)n(C)n1` [Example 8, 1-((2R)-3-cyclopentyl-2-{[formyl(hydroxy)amino]methyl}propanoyl)-N-[(1,3-dimethyl-1H-pyrazol-5-yl)carbonyl]-L-prolinamide], the MIC was at most 32 µg/mL. In the case of `O=CN(O)C[C@@H](CC1CCCC1)C(=O)N1CCC[C@H]1C(=O)NC(=O)c1ccc(F)cc1` [Example 1, 1-((2R)-3-cyclopentyl-2-{[formyl(hydroxy)amino]methyl}propanoyl)-N-[(4-fluorophenyl)carbonyl]-L-prolinamide], the MIC is at most 32 µg/mL. With `O=CN(O)C[C@@H](CC1CCCC1)C(=O)N1CCC[C@H]1C(=O)NC(=O)c1ccncc1` [Example 17, N-[1-((2R)-3-cyclopentyl-2-{[formyl(hydroxy)amino]methyl}propanoyl)-L-prolyl]-4-pyridinecarboxamide], the MIC was at most 32 µg/mL. `O=CN(O)C[C@@H](CC1CCCC1)C(=O)N1CCC[C@H]1C(=O)NC(=O)c1cc(F)ccc1F` [Example 15, 1-((2R)-3-cyclopentyl-2-{[formyl(hydroxy)amino]methyl}propanoyl)-N-[(2,5-difluorophenyl)carbonyl]-L-prolinamide]: the MIC is at most 32 µg/mL.

`O=CN(O)C[C@@H](CC1CCCC1)C(=O)N1CCC[C@H]1C(=O)NC(=O)c1cccc(F)c1` [Example 11, 1-((2R)-3-cyclopentyl-2-{[formyl(hydroxy)amino]methyl}propanoyl)-N-[(3-fluorophenyl)carbonyl]-L-prolinamide]: the MIC was at most 32 µg/mL. In the case of `CC(=O)NC(=O)[C@@H]1CCCN1C(=O)[C@H](CC1CCCC1)CN(O)C=O` [Example 2, N-acetyl-1-((2R)-3-cyclopentyl-2-{[formyl(hydroxy)amino]methyl}propanoyl)-L-prolinamide] it was at most 32 µg/mL.

As to `N[C@H]1CC[C@H](OC(=O)NC(=O)[C@@H]2CCCN2C(=O)[C@H](CC2CCCC2)CN(O)C=O)CC1` [Example 19, N-{[(trans-4-aminocyclohexyl)oxy]carbonyl}-1-((2R)-3-cyclopentyl-2-{[formyl(hydroxy)amino]methyl}propanoyl)-L-prolinamide], the MIC was at most 32 µg/mL.

`COCC(=O)NC(=O)[C@@H]1CCCN1C(=O)[C@H](CC1CCCC1)CN(O)C=O` [Example 5, 1-((2R)-3-cyclopentyl-2-{[formyl(hydroxy)amino]methyl}propanoyl)-N-[(methyloxy)acetyl]-L-prolinamide]: the MIC is at most 32 µg/mL. Turning to `O=CN(O)C[C@@H](CC1CCCC1)C(=O)N1CCC[C@H]1C(=O)NC(=O)c1ccc(C(F)(F)F)nc1` [Example 6, N-[1-((2R)-3-cyclopentyl-2-{[formyl(hydroxy)amino]methyl}propanoyl)-L-prolyl]-6-(trifluoromethyl)-3-pyridinecarboxamide], the MIC is at most 32 µg/mL.

Regarding `O=CN(O)C[C@@H](CC1CCCC1)C(=O)N1CCC[C@H]1C(=O)NC(=O)c1c(F)cccc1F` [Example 18, 1-((2R)-3-cyclopentyl-2-{[formyl(hydroxy)amino]methyl}propanoyl)-N-[(2,6-difluorophenyl)carbonyl]-L-prolinamide], the MIC was at most 32 µg/mL. `Cc1cc(C(=O)NC(=O)[C@@H]2CCCN2C(=O)[C@H](CC2CCCC2)CN(O)C=O)nn1C` [Example 7, 1-((2R)-3-cyclopentyl-2-{[formyl(hydroxy)amino]methyl}propanoyl)-N-[(1,5-dimethyl-1H-pyrazol-3-yl)carbonyl]-L-prolinamide]: the MIC is at most 32 µg/mL. Turning to `N#Cc1cccc(C(=O)NC(=O)[C@@H]2CCCN2C(=O)[C@H](CC2CCCC2)CN(O)C=O)c1` [Example 14, N-[(3-cyanophenyl)carbonyl]-1-((2R)-3-cyclopentyl-2-{[formyl(hydroxy)amino]methyl}propanoyl)-L-prolinamide], the MIC was at most 32 µg/mL. In the case of `Cc1cc(C(=O)NC(=O)[C@@H]2CCCN2C(=O)[C@H](CC2CCCC2)CN(O)C=O)no1` [Example 9, 1-((2R)-3-cyclopentyl-2-{[formyl(hydroxy)amino]methyl}propanoyl)-N-[(5-methyl-3-isoxazolyl)carbonyl]-L-prolinamide] it was at most 32 µg/mL; in that of `Cc1ccc(C(=O)NC(=O)[C@@H]2CCCN2C(=O)[C@H](CC2CCCC2)CN(O)C=O)cc1F` [Example 12], at most 32 µg/mL; in that of `O=CN(O)C[C@@H](CC1CCCC1)C(=O)N1CCC[C@H]1C(=O)NC(=O)c1ccccc1F` [Example 10, 1-((2R)-3-cyclopentyl-2-{[formyl(hydroxy)amino]methyl}propanoyl)-N-[(2-fluorophenyl)carbonyl]-L-prolinamide], at most 32 µg/mL. For the compound `O=CN(O)C[C@@H](CC1CCCC1)C(=O)N1CCC[C@H]1C(=O)NC(=O)c1ccc(N2CCOCC2)nc1` [Example 20, N-[1-((2R)-3-cyclopentyl-2-{[formyl(hydroxy)amino]methyl}propanoyl)-L-prolyl]-6-(4-morpholinyl)-3-pyridinecarboxamide], the MIC was at most 32 µg/mL. As to `O=CN(O)C[C@@H](CC1CCCC1)C(=O)N1CCC[C@H]1C(=O)NC(=O)c1ccccc1` [Example 3, 1-((2R)-3-cyclopentyl-2-{[formyl(hydroxy)amino]methyl}propanoyl)-N-(phenylcarbonyl)-L-prolinamide], the MIC was at most 32 µg/mL.
